Results as given in patent US20200030455A1, “MULTISTEP TUMOR TARGETING BY TAGGED ANTIBODY DERIVATIVES AND TAGGED DRUGS” (ISTITUTO BIOCHIMICO ITALIANO GIOVANNI LORENZINI S.P.A, priority 2017, published 2020).

Tests used:
[1] = system: ERBB2 pathway (c-Fos promoter reporter) in BRC 230 breast carcinoma cells; assay: c-Fos promoter reporter (luminescence, RLU) assay of ERBB2 signaling; type: cell-based
From the text: Mertansine was StrepTagged using a linker-spacer (depicted in A). The Strep-tag peptide WSHPQFEK (SEQ ID NO 2) was linked to the mertansine thiol group using the protocol disclosed in Bioconjugate Techniques, 3rd Edition Bioconjugate Techniques, 3rd Edition (2013) by Greg T. Hermanson. BRC 230 breast carcinoma cells, expressing moderate levels of ERBB2 were stably transfected with a promoter-reporter gene construct in which luciferase is placed under the control of the c-Fos promoter. […] Therefore, c-Fos activation is proportional to ERBB2 signaling, and luminescence is expected to decrease in response to the Toolbox treatment. BRC transfectants were seeded in 96-well plates (quadruplicates), and cultured for 24 h either in the presence or in the absence of the ERB-specific growth factor Neuregulin 1 (NRG-1) at a concentration of 5 nM, as indicated. During the last 30 min of this incubation ScFv (10 μg/ml) was added, where indicated. Meanwhile, equal molar concentrations of StrepTagged Mertansine (or RPMI 1640 medium, as a control) were pre-incubated with StrepTactMult in complete culture medium (RPMI 1640 containing 10% bovine serum) to form drug: StrepTactin complexes. […] All the cells were cultured for additional 72 h, and Relative Luminescence Units (RLU) were assessed in a luminometer.

[2] = system: SK-BR-3 breast carcinoma cells; assay: 3H-Thymidine incorporation (cell proliferation) assay; type: cell-based, human; settings: drug alone, without Toolbox cocktail; 5 and 50 μM; 72 h
Experimental: NAX 098 was modified by covalent addition of the polypeptide StrepTag ([…]), as also shown in (A). SK-BR-3 breast carcinoma cells were seeded in 96-well plates (quadruplicates), and cultured for 30 min in the presence of ScFv (10 μg/ml). Meanwhile, equal molar concentrations of NAX 098 and NAX […] (or RPMI 1640 medium, as a control) were pre-incubated with StrepTactMult in complete culture medium (RPMI 1640 containing 10% bovine serum) to form drug: StrepTactin complexes. The drug: StrepTactin complexes were added to separate cultures to yield a final StrpTactMult concentration of 0.75 μg/well (approximately 3.2 μg/ml), and two final drug concentrations of 5 and 50 μM, as indicated in (B). As a control, equal amounts of NAX 098 and NAX […] drugs were added to separate wells in the absence of the Toolbox cocktail. All the cells were cultured for 72 h, and ^3H-Thymidine incorporation was assessed over a 4 h radioactive pulse. Results were expressed as percent of radioactive Thymidine incorporation as compared to untreated (RPMI 1640 vehicle alone) control cells.

| Compound | activity of the ERBB2 pathway (Relative Luminescence Units) ([1]; BRC 230 transfectants, with or without NRG-1 5 nM, ScFv 10 μg/ml, drug 5 nM, 72 h) | activity of the StrepTagged drug before system-mediated dispatch ([1]; figure legend of Drawing 4) | inhibition of cell proliferation (3H-Thymidine incorporation vs untreated control) [2] |
| --- | --- | --- | --- |
| StrepTagged Mertansine: Strep-tag peptide WSHPQFEK linked to the mertansine thiol group using a linker-spacer | inhibited the ERBB2 pathway | inactivates the drug |  |
| COc1ccc2c(CCc3ccc(Cl)cc3)c3[n+](cc2c1OCCCN1C(=O)C=CC1=O)CCc1cc2c(cc1-3)OCO2 [NAX 098, 9-(3-propylmaleimide)-13-[2-(4-chlorophenyl)ethyl]berberine] |  |  | strongly inhibited cell proliferation |
